Reference: the supplement of paper PMC10307832

Tests used:
Experiment in all cases: relative viability (nuclei count vs DMSO), 5 days (fraction); higher = more cells survive
[1] = compound: C/C(=N\NC(=S)N1CCC1)/C2=CC=CC=N2 + CS(=O)(=O)N1CCN(Cc2cc3nc(-c4cccc5[nH]ncc45)nc(N4CCOCC4)c3s2)CC1 [Pictilisib] (partner 1 µM)
In short: (§1)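 Lung cancer cell lines in 1536-well plates got either a single drug or a fixed anchor-drug dose together with five library-drug doses (not always all listed) in √10 steps, by pin tool, on the day after seeding. Nuclei were counted after 5 days, and relative viability is the treated-to-vehicle ratio of nuclei counts. Values are medians of duplicate plates.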

[2] = compound: C/C(=N\NC(=S)N1CCC1)/C2=CC=CC=N2 + CC1(C)CCC(c2ccc(Cl)cc2)=C(CN2CCN(c3ccc(C(=O)NS(=O)(=O)c4ccc(N[C@H](CCN5CCOCC5)CSc5ccccc5)c(S(=O)(=O)C(F)(F)F)c4)cc3)CC2)C1 [Navitoclax] (partner 0.5 µM)
In short: as §1

[3] = compound: C/C(=N\NC(=S)N1CCC1)/C2=CC=CC=N2 + CC(C)C[C@H](NC(=O)[C@H](Cc1ccccc1)NC(=O)c1cnccn1)B(O)O [Bortezomib] (partner 0.002 µM)
In short: as §1

[4] = compound: C/C(=N\NC(=S)N1CCC1)/C2=CC=CC=N2 + C[C@]1(O)C[C@@H](c2nc(-c3ccc4ccc(-c5ccccc5)nc4c3)c3c(N)nccn32)C1 [Linsitinib] (partner 1 µM)
In short: as §1

[5] = compound: C/C(=N\NC(=S)N1CCC1)/C2=CC=CC=N2 + O=C(c1cc(Cc2n[nH]c(=O)c3ccccc23)ccc1F)N1CCN(C(=O)C2CC2)CC1 [Olaparib] (partner 8 µM)
In short: as §1

[6] = compound: C/C(=N\NC(=S)N1CCC1)/C2=CC=CC=N2 + C[C@@H](Oc1cc(-c2cnn(C3CCNCC3)c2)cnc1N)c1c(Cl)ccc(F)c1Cl [Crizotinib] (partner 1 µM)
In short: as §1

[7] = compound: C/C(=N\NC(=S)N1CCC1)/C2=CC=CC=N2 + COc1cc2c(Oc3ccc(NC(=O)C4(C(=O)Nc5ccc(F)cc5)CC4)cc3F)ccnc2cc1OCCCN1CCOCC1 [Foretinib] (partner 0.25 µM)
In short: as §1

[8] = compound: C/C(=N\NC(=S)N1CCC1)/C2=CC=CC=N2 + Cc1nc(NC(=O)N2CCC[C@H]2C(N)=O)sc1-c1ccnc(C(C)(C)C(F)(F)F)c1 [Alpelisib] (partner 2 µM)
In short: as §1

[9] = compound: C/C(=N\NC(=S)N1CCC1)/C2=CC=CC=N2 + CS(=O)(=O)CCNCc1ccc(-c2ccc3ncnc(Nc4ccc(OCc5cccc(F)c5)c(Cl)c4)c3c2)o1 [Lapatinib] (partner 2 µM)
In short: as §1

[10] = compound: C/C(=N\NC(=S)N1CCC1)/C2=CC=CC=N2
In short: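 Five library-drug doses, separated by factors of √10, were pinned into 1536-well plates holding lung cancer cell lines after an overnight stay at 37 °C. Cells were fixed, permeabilised and Hoechst-stained in one step after 5 days without medium change, then imaged at 4×. Viability compares treated-well with vehicle-well nuclei, counted in MetaXpress, as a median across plates. Passing plates had control CV below 25% and at least one doubling.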

[11] = compound: C/C(=N\NC(=S)N1CCC1)/C2=CC=CC=N2 + N=C(N)NC(=N)NCCc1ccccc1 [Phenformin] (partner 250 µM)
In short: as §1

[12] = compound: C/C(=N\NC(=S)N1CCC1)/C2=CC=CC=N2 + Cc1nc(Nc2ncc(C(=O)Nc3c(C)cccc3Cl)s2)cc(N2CCN(CCO)CC2)n1 [Dasatinib] (partner 0.075 µM)
In short: as §1

[13] = compound: C/C(=N\NC(=S)N1CCC1)/C2=CC=CC=N2 + Cc1cc(Nc2cc(N3CCN(C)CC3)nc(Sc3ccc(NC(=O)C4CC4)cc3)n2)n[nH]1 [Tozasertib] (partner 0.1 µM)
In short: as §1

[14] = compound: C/C(=N\NC(=S)N1CCC1)/C2=CC=CC=N2 + COc1cccc2cc(-c3nc([C@H]4CC[C@H](C(=O)O)CC4)n4ncnc(N)c34)[nH]c12 [OSI-027] (partner 0.5 µM)
In short: as §1

[15] = compound: C/C(=N\NC(=S)N1CCC1)/C2=CC=CC=N2 + CCNC(=O)c1noc(-c2cc(C(C)C)c(O)cc2O)c1-c1ccc(CN2CCOCC2)cc1 [Luminespib] (partner 0.01 µM)
In short: as §1

Q: For EBC-1, which relative viability ([1]; first compound 0.05 µM) is on record?
A: 0.164

Q: And the relative viability ([1]; first compound 0.1581 µM)?
A: 0.205

Q: What about the relative viability ([1]; first compound 0.5 µM) of the same cell line?
A: 0.187

Q: And the relative viability ([1]; first compound 1.581 µM)?
A: 0.116

Q: What about the relative viability ([1]; first compound 5 µM) of the same cell line?
A: 0.14

Q: And the relative viability ([2]; first compound 0.05 µM)?
A: 0.135

Q: What about the relative viability ([2]; first compound 0.1581 µM) of the same cell line?
A: 0.146

Q: And the relative viability ([2]; first compound 0.5 µM)?
A: 0.136

Q: And the relative viability ([2]; first compound 1.581 µM)?
A: 0.134

Q: And the relative viability ([2]; first compound 5 µM)?
A: 0.174

Q: What about the relative viability ([3]; first compound 0.05 µM) of the same cell line?
A: 0.177

Q: And the relative viability ([3]; first compound 0.1581 µM)?
A: 0.226

Q: What about the relative viability ([3]; first compound 0.5 µM) of the same cell line?
A: 0.169

Q: What about the relative viability ([3]; first compound 1.581 µM) of the same cell line?
A: 0.162

Q: And the relative viability ([3]; first compound 5 µM)?
A: 0.174

Q: What about the relative viability ([4]; first compound 0.05 µM) of the same cell line?
A: 0.13

Q: What about the relative viability ([4]; first compound 0.1581 µM) of the same cell line?
A: 0.19

Q: And the relative viability ([4]; first compound 0.5 µM)?
A: 0.137

Q: What about the relative viability ([4]; first compound 1.581 µM) of the same cell line?
A: 0.0985

Q: And the relative viability ([4]; first compound 5 µM)?
A: 0.11

Q: And the relative viability ([5]; first compound 0.05 µM)?
A: 0.163

Q: And the relative viability ([5]; first compound 0.1581 µM)?
A: 0.164

Q: What about the relative viability ([5]; first compound 0.5 µM) of the same cell line?
A: 0.152

Q: What about the relative viability ([5]; first compound 1.581 µM) of the same cell line?
A: 0.131

Q: And the relative viability ([5]; first compound 5 µM)?
A: 0.13

Q: And the relative viability ([6]; first compound 0.05 µM)?
A: 0.173

Q: And the relative viability ([6]; first compound 0.1581 µM)?
A: 0.187

Q: What about the relative viability ([6]; first compound 0.5 µM) of the same cell line?
A: 0.163

Q: And the relative viability ([6]; first compound 1.581 µM)?
A: 0.162

Q: What about the relative viability ([6]; first compound 5 µM) of the same cell line?
A: 0.128

Q: What about the relative viability ([7]; first compound 0.05 µM) of the same cell line?
A: 0.0973

Q: And the relative viability ([7]; first compound 0.1581 µM)?
A: 0.107

Q: What about the relative viability ([7]; first compound 0.5 µM) of the same cell line?
A: 0.131

Q: What about the relative viability ([7]; first compound 1.581 µM) of the same cell line?
A: 0.0785

Q: And the relative viability ([7]; first compound 5 µM)?
A: 0.0979

Q: And the relative viability ([8]; first compound 0.05 µM)?
A: 0.191

Q: What about the relative viability ([8]; first compound 0.1581 µM) of the same cell line?
A: 0.192

Q: What about the relative viability ([8]; first compound 0.5 µM) of the same cell line?
A: 0.166

Q: What about the relative viability ([8]; first compound 1.581 µM) of the same cell line?
A: 0.152

Q: What about the relative viability ([8]; first compound 5 µM) of the same cell line?
A: 0.147

Q: And the relative viability ([9]; first compound 0.05 µM)?
A: 0.225

Q: And the relative viability ([9]; first compound 0.1581 µM)?
A: 0.195

Q: What about the relative viability ([9]; first compound 0.5 µM) of the same cell line?
A: 0.226

Q: And the relative viability ([9]; first compound 1.581 µM)?
A: 0.191

Q: And the relative viability ([9]; first compound 5 µM)?
A: 0.161

Q: What about the relative viability ([10]; 0.05 µM) of the same cell line?
A: 0.169

Q: And the relative viability ([10]; 0.1581 µM)?
A: 0.214

Q: What about the relative viability ([10]; 0.5 µM) of the same cell line?
A: 0.169

Q: What about the relative viability ([10]; 1.581 µM) of the same cell line?
A: 0.127

Q: And the relative viability ([10]; 5 µM)?
A: 0.154

Q: For NCI-H1623, which relative viability ([11]; first compound 0.05 µM) is on record?
A: 0.366

Q: What about the relative viability ([11]; first compound 0.1581 µM) of the same cell line?
A: 0.337

Q: What about the relative viability ([11]; first compound 0.5 µM) of the same cell line?
A: 0.424

Q: And the relative viability ([11]; first compound 1.581 µM)?
A: 0.349

Q: What about the relative viability ([11]; first compound 5 µM) of the same cell line?
A: 0.636

Q: And the relative viability ([12]; first compound 0.05 µM)?
A: 0.32

Q: And the relative viability ([12]; first compound 0.1581 µM)?
A: 0.364

Q: And the relative viability ([12]; first compound 0.5 µM)?
A: 0.293

Q: What about the relative viability ([12]; first compound 1.581 µM) of the same cell line?
A: 0.276

Q: And the relative viability ([12]; first compound 5 µM)?
A: 0.528

Q: And the relative viability ([13]; first compound 0.05 µM)?
A: 0.32

Q: What about the relative viability ([13]; first compound 0.1581 µM) of the same cell line?
A: 0.329

Q: And the relative viability ([13]; first compound 0.5 µM)?
A: 0.323

Q: And the relative viability ([13]; first compound 1.581 µM)?
A: 0.269

Q: And the relative viability ([13]; first compound 5 µM)?
A: 0.266

Q: And the relative viability ([7]; first compound 0.05 µM)?
A: 0.39

Q: What about the relative viability ([7]; first compound 0.1581 µM) of the same cell line?
A: 0.372

Q: What about the relative viability ([7]; first compound 0.5 µM) of the same cell line?
A: 0.414

Q: And the relative viability ([7]; first compound 1.581 µM)?
A: 0.347

Q: What about the relative viability ([7]; first compound 5 µM) of the same cell line?
A: 0.622

Q: And the relative viability ([14]; first compound 0.05 µM)?
A: 0.336

Q: And the relative viability ([14]; first compound 0.1581 µM)?
A: 0.367

Q: And the relative viability ([14]; first compound 0.5 µM)?
A: 0.332

Q: What about the relative viability ([14]; first compound 1.581 µM) of the same cell line?
A: 0.268

Q: What about the relative viability ([14]; first compound 5 µM) of the same cell line?
A: 0.293

Q: And the relative viability ([15]; first compound 0.05 µM)?
A: 0.241

Q: What about the relative viability ([15]; first compound 0.1581 µM) of the same cell line?
A: 0.295

Q: What about the relative viability ([15]; first compound 0.5 µM) of the same cell line?
A: 0.303

Q: And the relative viability ([15]; first compound 1.581 µM)?
A: 0.231

Q: And the relative viability ([15]; first compound 5 µM)?
A: 0.322

Q: What about the relative viability ([10]; 0.05 µM) of the same cell line?
A: 0.395

Q: And the relative viability ([10]; 0.1581 µM)?
A: 0.415

Q: And the relative viability ([10]; 0.5 µM)?
A: 0.403

Q: And the relative viability ([10]; 1.581 µM)?
A: 0.357

Q: And the relative viability ([10]; 5 µM)?
A: 0.32
